According to PMC11206207 (Chemical Science, 2024):
Numbered stars: 1 amine (or outer) side, 2 acyl side, 3 side chain; on linkers, the order of the positions; unused ones are H or OH. Bridge positions count the residues as written; N and C are the ends. Ends that are not written are not given here. Peptide text beside a SMILES is read from it. * marks the point of attachment. FITC = O=C1OC2(c3ccc(O)cc3Oc3cc(O)ccc32)c2ccc(NC(=S)*)cc21; X1 = O=C(C[*:2])Nc1cc(NC(=O)C[*:3])cc(C(=O)[*:1])c1; AEEA = NCCOCCOCC(=O)O

What was measured:
AGS cells = assay: Cell viability assay; assay type: cell-based; conditions: 24 hours
TEAD4 = TEAD4 (Homo sapiens, UniProt Q15561); assay: Fluorescence polarization binding assay of FAM/FITC-labelled peptides to TEAD4
Chain of TEAD4 (Q15561 210-434): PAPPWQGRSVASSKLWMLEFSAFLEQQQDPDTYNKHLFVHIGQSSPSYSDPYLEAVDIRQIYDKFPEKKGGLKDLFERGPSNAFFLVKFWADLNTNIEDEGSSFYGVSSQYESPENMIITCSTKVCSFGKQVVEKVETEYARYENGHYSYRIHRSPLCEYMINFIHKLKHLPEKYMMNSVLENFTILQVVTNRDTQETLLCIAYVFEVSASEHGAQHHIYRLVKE

## CC(=O)N[C@@H](CC(C)C)C(=O)N1CCC[C@H]1C(=O)N[C@H]1CCCCNC(=O)c2cc3cc(c2)NC(=O)CSC[C@H](NC(=O)[C@H](CO)NC(=O)[C@H](C(C)C)NC(=O)[C@H](Cc2c[nH]c4ccccc24)NC(=O)[C@H](CO)NC(=O)[C@H]([C@@H](C)O)NC(=O)[C@H](CC(C)C)NC(=O)CNC(=O)[C@H]([C@@H](C)O)NC1=O)C(=O)N[C@@H](Cc1c[nH]cn1)C(=O)N[C@@H](Cc1ccccc1)C(=O)N[C@@H](CC(C)C)C(=O)N[C@@H](CCCNC(=N)N)C(=O)N[C@@H](CO)C(=O)N[C@@H](CC(C)C)C(=O)N[C@H](C(=O)NCC(=O)NCC(=O)N[C@@H](CO)C(=O)NCC(N)=O)CSCC(=O)N3 [compound 16] (Ac-LPKTGLTSWVSCHFLRSLCGGSG-NH2; linker 3-12-19 via X1)
AGS cells; at 10 μM, in presence of PDPA nanocarrier
  inhibitory activity on AGS cells: little inhibitory inhibition

## CC(C)C[C@H](NC(=O)[C@H](CO)NC(=O)[C@H](Cc1ccccc1)NC(=O)[C@H](CC(=O)O)NC(=O)[C@H](Cc1c[nH]c2ccccc12)NC(=O)[C@H](Cc1ccccc1)NC(=O)[C@H](CO)NC(=O)[C@H](CCCCN)NC(=O)[C@@H]1CCCN1C(=O)[C@H](Cc1c[nH]c2ccccc12)NC(=O)[C@H](CCC(N)=O)NC(=O)CNC(=O)[C@@H](NC(=O)[C@H](CCCCN)NC(=O)[C@@H]1CCCN1C(=O)[C@H](CC(C)C)NC(=O)COCCOCCNC(=S)Nc1ccc2c(c1)C(=O)OC21c2ccc(O)cc2Oc2cc(O)ccc21)[C@@H](C)O)C(=O)NCC(=O)N[C@@H](CS)C(=O)NCC(=O)NCC(=O)N[C@@H](CO)C(=O)NCC(N)=O [linear version of 15] ({FITC-AEEA}-LPKTGQWPKSFWDFSLGCGGSG-NH2; N-terminus and C-terminus assumed)
TEAD4
  Kd: 6.3 µM

## PKKKRKVDPKKKRKVDPKKKRKVNGLPKTGLTSWVSCHFLRSLCGGSG-NH2 (linker 28-37-44 via X1; C-terminus assumed) [16-NLS]
AGS cells; read-out: cellular inhibitory activity EC50, AGS cells
  EC50: 8.3 µM
